Results reported in PubChem BioAssay (NCI).
“And” between values parts separate entries of the source, which are not always exact repeats. Identical values can stand only once.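 Interpolation was linear, between the two tested concentrations surrounding the appropriate level; five concentrations were tested over 48 hours in 96-well plates. GI50 is the concentration that inhibits growth by half. TGI is the concentration that stops growth completely.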

How the values were obtained:
Test in all cases: growth of human tumour cells (NCI), 48 h
KM12 colon = system: KM12 colon
786-0 renal = system: 786-0 renal
SF-295 CNS = system: SF-295 CNS
IGROV1 ovarian = system: IGROV1 ovarian
OVCAR-3 ovarian = system: OVCAR-3 ovarian
SR leukemia = system: SR leukemia
OVCAR-5 ovarian = system: OVCAR-5 ovarian
NCI-H522 lung = system: NCI-H522 lung
HS 578T breast = system: HS 578T breast
MDA-MB-435 = system: MDA-MB-435

| Structure (SMILES) | TGI (KM12 colon) | TGI (786-0 renal) | TGI (SF-295 CNS) | TGI (IGROV1 ovarian) | TGI (OVCAR-3 ovarian) | TGI (SR leukemia) | TGI (OVCAR-5 ovarian) | TGI (NCI-H522 lung) | TGI (HS 578T breast) | TGI (MDA-MB-435) | GI50 (786-0 renal) | GI50 (SF-295 CNS) | GI50 (IGROV1 ovarian) | GI50 (KM12 colon) | GI50 (OVCAR-3 ovarian) | GI50 (OVCAR-5 ovarian) | GI50 (HS 578T breast) | GI50 (MDA-MB-435) | GI50 (NCI-H522 lung) |
| --- | --- | --- | --- | --- | --- | --- | --- | --- | --- | --- | --- | --- | --- | --- | --- | --- | --- | --- | --- |
| CN(C)CN(C)c1nc(N(C)C)nc(N(C)C)n1 | > 100 µM | > 100 µM | > 100 µM | > 100 µM | > 100 µM | > 100 µM | > 100 µM | > 100 µM |  |  |  |  |  |  |  |  |  |  |  |
| O=C(N[C@H]1CC2(C=C(I)C(=O)C(I)=C2)OC1=O)OCc1ccccc1 | 29.5 µM | 35.2 µM | 37.3 µM |  | 31.3 µM |  | 33.2 µM | 26.2 µM |  |  |  |  |  |  |  |  |  |  |  |
| NC(=O)N1N=C2c3ccccc3OC[C@H]2[C@@H]1c1ccccc1 | 16.6 µM | > 100 µM | > 35.7 µM | > 100 µM | > 76.3 µM | 56 µM | 72.1 µM | 12.7 µM |  |  |  |  |  |  |  |  |  |  |  |
| Cc1cn([C@H]2CN(O)C[C@@H](CO)O2)c(=O)[nH]c1=O | > 100 µM | > 100 µM | > 100 µM | > 100 µM |  |  | > 100 µM |  | > 100 µM | > 100 µM |  |  |  |  |  |  |  |  |  |
| O=C(Cn1ccnc1[N+](=O)[O-])NCc1ccc(F)cc1 | > 100 µM | > 100 µM | > 100 µM | > 100 µM | > 100 µM |  | > 100 µM | > 100 µM |  |  |  |  |  |  |  |  |  |  |  |
| O=C(NCCOC(=O)CCCCCCCCC(=O)OCCNC(=O)NC(=O)c1cn(Cc2ccccc2)c(=O)[nH]c1=O)NC(=O)c1cn(Cc2ccccc2)c(=O)[nH]c1=O | > 100 µM | > 100 µM | > 100 µM | > 100 µM | > 100 µM | > 100 µM | > 100 µM | > 100 µM |  |  |  |  |  |  |  |  |  |  |  |
| Nc1cccc(C(=O)/C=C/c2ccccc2O)c1 | > 100 µM | > 100 µM | > 100 µM | > 100 µM | > 100 µM | > 100 µM | > 100 µM | > 100 µM |  |  |  |  |  |  |  |  |  |  |  |
| Cc1cc2nc3c(C(OC4OC(CO)C(O)C(O)C4O)C(O)CO)nn(-c4ccc(F)cc4)c3nc2cc1C (stereo unspecified) | > 100 µM | > 100 µM | > 100 µM |  | > 100 µM | > 100 µM | > 100 µM | > 100 µM |  |  |  |  |  |  |  |  |  |  |  |
| COc1cc2ccc(CC(=O)O)cc2cc1OC | > 100 µM | > 100 µM |  | > 100 µM | > 100 µM | > 100 µM |  | > 100 µM |  |  |  |  |  |  |  |  |  |  |  |
| Cc1ccc(-n2cc(/C(N)=N/O)c3ccccc3c2=O)cc1 | > 100 µM | > 100 µM | > 100 µM | > 100 µM | > 100 µM | > 100 µM |  | > 100 µM |  |  |  |  |  |  |  |  |  |  |  |
| O=S1(=O)CS(=O)(=O)OCCCCCO1 | > 100 µM | > 100 µM |  | > 100 µM |  |  | > 100 µM | > 100 µM |  |  |  |  |  |  |  |  |  |  |  |
| CC(=O)O[C@H]1C(=O)[C@@]2(C)C([C@H](OC(=O)c3ccccc3)[C@]3(O)C[C@H](OC(=O)[C@H](O)[C@@H](NC(=O)c4ccc(Cl)cc4)c4ccccc4)C(C)=C1C3(C)C)C1(OC(C)=O)CO[C@@H]1C[C@@H]2O (stereo partly specified) | 25 µM | 3.09 µM and 29.7 µM |  | 25 µM and 28.2 µM | 0.108 µM |  | 25 µM |  | 0.185 µM | 0.0126 µM | 0.045 µM | 0.177 µM | 0.0134 µM |  |  |  |  |  |  |
| O=C(CC/C(CC(=O)c1ccc(Cl)cc1)=N\O)Nc1cccc(Cl)c1 | > 100 µM | > 100 µM | > 100 µM | > 100 µM | > 100 µM |  | > 100 µM |  |  |  |  |  |  |  |  |  |  |  |  |
| COc1ccc(C2=NOC3=c4ccccc4=CSC3=C2c2ccccc2)cc1 | > 100 µM | > 100 µM | > 100 µM | > 100 µM | 79.5 µM |  | > 100 µM | > 100 µM | > 100 µM | > 100 µM | 27.5 µM | 48.9 µM | 45.8 µM | 57.7 µM | 25 µM | 80.1 µM | 47.4 µM | 42.9 µM | > 100 µM |
| Cc1ccccc1NC(=O)C(=O)CC(=O)c1sc(-n2nc(-c3ccccc3)cc2-c2ccccc2)nc1C | > 100 µM | > 100 µM | > 100 µM | > 100 µM | > 100 µM | > 100 µM | > 100 µM | > 100 µM |  |  |  |  |  |  |  |  |  |  |  |
| c1ccc2c(c1)n1nnnc1c1nnnn21 | > 100 µM | > 100 µM | > 100 µM | > 100 µM | > 100 µM |  | > 100 µM | > 100 µM |  |  |  |  |  |  |  |  |  |  |  |
| Clc1ccc(/C=C/c2csnn2)cc1 | > 100 µM | > 100 µM | > 100 µM | > 100 µM | > 100 µM |  | > 100 µM | > 100 µM |  |  |  |  |  |  |  |  |  |  |  |
| Cc1cccc(NC(=O)CSc2nnc(-c3ccc(N=Cc4ccc(Cl)cc4)cc3)o2)c1 | > 100 µM | > 100 µM | > 100 µM |  |  | > 100 µM |  | > 100 µM |  |  |  |  |  |  |  |  |  |  |  |
| COc1cc2c(c(OC)c1OC)-c1ccc(SC)c(=O)cc1C(CC(=O)Oc1ccccc1F)C2 (stereo unspecified) | 0.0493 µM | > 7.5 µM | > 7.5 µM | > 7.5 µM | 0.0272 µM | > 7.5 µM | > 7.5 µM | 0.0307 µM |  |  |  |  |  |  |  |  |  |  |  |
